This passage reports EC50 results from patent publication US8188291B2, “Heteroaryl-substituted carboxamides and their use as pharmaceuticals” (Sanofi-Aventis, priority 2006, dated 2012).

Counter-ions that a name gives are not always drawn.

This experiment relates to eNOS promoter. In words: Activation of eNOS transcription (eNOS promoter-luciferase reporter gene assay). As to conditions: human endothelial cell line stably transfected with eNOS promoter-luciferase construct; 18 h incubation; determined graphically; read-out: EC50 values of transcription induction ratios (TIR). The format is cell-based. The procedure: Determination of the Biological Activity A) Activation of eNOS Transcription
Activation of eNOS transcription was measured as described in detail by Li et al., “Activation of protein kinase C alpha and/or epsilon enhances transcription of the human endothelial nitric oxide synthase gene”, Mol. Pharmacol. 53 (1998) 630. Briefly, a 3.5 kB long fragment 5′ of the starting codon of the eNOS gene was cloned, sequenced and cloned in firefly luciferase expression plasmids to monitor activation of the eNOS promoter by reporter gene activity. A human endothelial cell line stable transfected and expressing this promoter-reporter construct was used for compound testing. Cells were incubated for 18 h with the compounds.
All compounds were dissolved in sterile dimethyl sulfoxide (DMSO). A final concentration of 0.5% DMSO in complete medium was allowed. Induction of reporter gene expression in these cells was measured using a standard luciferase assay system (Promega, Cat. No. E150) according to the manufacturer's instructions. Luciferase induction in cells incubated with compounds were compared to those incubated with solvent alone. The ratio of both activities (transcription induction ratio, TIR) was plotted as a function of compound concentration. Typically, TIR values started at low concentrations at a ratio of 1, indicating no compound effect, and extended up to a maximum TIR value TIR(max) which indicates the increase of the eNOS transcription. EC50 values of transcription induction ratios as a function of compound concentration were determined graphically.
As for `O=C(CCc1ccc(-c2ccc(OC(F)(F)F)cc2)s1)NCC1CC1` [Example 7, N-Cyclopropylmethyl-3-[5-(4-trifluoromethoxy-phenyl)-thiophen-2-yl]-propionamide], the EC50 is less than 500 nM. Under `O=C(CCc1ccc(-c2ccc(OC(F)(F)F)cc2)s1)NCC(F)(F)F` [Example 8, N-(2,2,2-Trifluoro-ethyl)-3-[5-(4-trifluoromethoxy-phenyl) -thiophen-2-yl]-propionamide] stands 500 to 5000 nM; under `O=C(CCc1ccc(-c2ccc(OC(F)(F)F)cc2)s1)Nc1ccccc1` [Example 10, N-Phenyl-3-[5-(4-trifluoromethoxy-phenyl)-thiophen-2-yl]-propionamide], 500 to 5000 nM. For `CC(=O)N1CCN(C(=O)CCc2ccc(-c3ccccc3F)s2)CC1` [Example 20, 1-(4-Acetyl-piperazin-1-yl)-3-[5-(2-fluoro-phenyl) -thiophen-2-yl]-propan-1-one], the EC50 was in the range of 500 to 5000 nM.

As to `O=C(CNc1nc(-c2ccc(F)cc2)cs1)N1CCCCC1` [Example 67, 2-[4-(4-Fluoro-phenyl)-thiazol-2-ylamino]-1-(piperidin-1-yl)-ethanone trifluoroacetic acid salt], the EC50 lay within 500 to 5000 nM. Under `O=C(CNc1nc(-c2ccc(F)cc2)cs1)N1CCCC1` [Example 69, 2-[4-(4-Fluoro-phenyl)-thiazol-2-ylamino]-1-(pyrrolidin-1-yl)-ethanone trifluoroacetic acid salt] stands less than 500 nM; under `O=C(COc1ccc(-c2ccccc2F)nc1)Nc1ccccn1` [Example 77, 2-[6-(2-Fluoro-phenyl)-pyridin-3-yloxy]-N-(pyridin-2-yl) -acetamide trifluoroacetic acid salt], less than 500 nM. Turning to `O=C(COc1ccc(-c2ccccc2F)nc1)Nc1nccs1` [Example 78, 2-[6-(2-Fluoro-phenyl)-pyridin-3-yloxy]-N-(thiazol-2-yl) -acetamide trifluoroacetic acid salt], the EC50 is less than 500 nM. For `Nc1nc(CCC(=O)N2CCCCC2)ccc1-c1ccccc1` [Example 79, 3-(6-Amino-5-phenyl-pyridin-2-yl)-1-(piperidin-1-yl) -propanone], the EC50 was less than 500 nM. The result for `O=C(CNc1ccc(-c2ccccc2F)nc1)N1CCCCC1` [Example 89, 2-[6-(2-Fluoro-phenyl)-pyridin-3-ylamino]-1-(piperidin-1-yl)-ethanone trifluoroacetic acid salt] reads 500 to 5000 nM; that for `O=C(CSc1nc(-c2ccc(F)cc2)cs1)N1CCCC1` [Example 98, 2-[4-(4-Fluoro-phenyl)-thiazol-2-ylsulfanyl]-1-(pyrrolidin-1-yl)-ethanone], 500 to 5000 nM; that for `CC(C)(C)NC(=O)CSc1nc(-c2ccc(F)cc2)cs1` [Example 100, N-tert-Butyl-2-[4-(4-Fluoro-phenyl)-thiazol-2-ylsulfanyl]-acetamide], 500 to 5000 nM.
